Kd data for two compounds are collected here from PMC6030199, “The mitochondrial citrate carrier, SLC25A1, drives stemness and therapy resistance in non-small cell lung cancer” (Cell Death and Differentiation, 2018).

The assay addresses T1, SLC25A1 (mitochondrial citrate carrier) (Homo sapiens, UniProt P53007).
T1 construct: Histidine-tagged recombinant purified SLC25A1
The assay is described as follows: SPR (Biacore […], NTA chip, […] steady-state fit). The format is binding.

T1 sequence (P53007 14-311): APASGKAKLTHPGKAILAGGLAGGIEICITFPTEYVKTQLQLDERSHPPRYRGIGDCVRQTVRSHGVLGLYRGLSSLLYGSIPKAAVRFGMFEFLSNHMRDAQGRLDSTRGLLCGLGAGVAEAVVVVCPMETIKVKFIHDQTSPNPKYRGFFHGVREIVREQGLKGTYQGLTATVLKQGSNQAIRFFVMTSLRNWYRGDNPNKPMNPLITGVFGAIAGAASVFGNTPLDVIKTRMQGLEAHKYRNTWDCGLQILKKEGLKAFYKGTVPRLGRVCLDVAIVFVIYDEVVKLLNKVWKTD

In turn, `O=C(O)c1ccc(Cl)c(S(=O)(=O)Nc2cccc([N+](=O)[O-])c2)c1` [CTPI-1] gave a dissociation constant (Kd) of 63.6 µM.

Compound `O=C(O)c1ccccc1NS(=O)(=O)c1ccc(Cl)c([N+](=O)[O-])c1` [CTPI-2] had a Kd of 3.5 µM.

The Kd is the concentration at which binding is half-saturated. The low end stands for tighter binding, the high end for weaker binding.
